Like-named read-outs stand apart in the source and are kept apart here.
Assays:
[1] = test system: Brugia malayi microfilariae; assay: Adult Brugia malayi mouse model, microfilaria production; type: in vivo; details: Table 5B
Text: (§1) In an adult Brugia malayi mouse model treatment groups (BALB/c CCR3−/− mice, 6-8 week old) received compounds by oral delivery for 7-28 days beginning at 6-10 weeks post-infection intraperitoneal with Brugia malayi third-stage larvae. Following treatment, at 12 weeks past-infection, adult worms and released microfilariae were recovered from the peritoneal cavity, counted and staged for sex. Genomic DNA was extracted from individual adult worms (10/group) and quantification of the Wolbachia surface protein (wBm-wsp) performed by quantitative PCR.
(§2) Table 5B provides a comparison of two stereoisomers in the adult Brugia malayi mouse model above at a range of doses and durations of treatment. Data in Table 5B are expressed as a reduction in Wolbachia load in comparison to the vehicle control group.

[2] = test system: Wolbachia in adult Brugia malayi; assay: Adult Brugia malayi mouse model, Wolbachia wsp qPCR; type: in vivo
Text: as §1
Treatment dosage unit is mg/kg (MK) and duration stated in days (d). Abbreviations: MIN (minocycline), bid (twice daily), Ms (mesylate). Data in Table 5A are expressed as a reduction in Wolbachia load in comparison to the vehicle control group.
as §2

[3] = test system: Wolbachia of the target parasite, Brugia malayi; assay: In vitro microfilariae (Mf) Brugia malayi screen, wsp/gst qPCR; type: cell-based; details: B. malayi Mf, 6 days
Experimental: An in vitro microfilariae (Mf) assay was used to screen against Wolbachia of the target parasite, Brugia malayi. The Mf were obtained by peritoneal lavage of gerbils (Meriones unguiculatus) harbouring a patent infection of Brugia malayi as described previously (Griffiths et al., 2010, Lab Animal).
Mf were purified using a PD-10 desalting column (Fisher) followed by centrifugation (1200 rpm for 5 minutes at room temperature) then re-suspended in filter-sterilised culture medium consisting of RPMI supplemented with heat-inactivated Foetal Calf Serum (HI-FCS), 1% Penicillin-Streptomycin and 1% Amphotericin B.
After determining the concentration of Mf, the stock solution was diluted in culture medium to ensure a final concentration of 8000 Mf/well of a 96 well plate (100 μl per well). Compounds to be tested (10 mM stock in 100% DMSO) were diluted to appropriate working concentrations in culture medium and 100 μl was added to the appropriate wells of the 96 well plate containing the Mf. Five replicates were used for each compound and each plate contained doxycycline (5 μM) and vehicle (DMSO) controls. The plates were incubated at 37° C., 5% CO2, for 6 days.
On day 6, a visual assessment of motility was performed and wells scored from 0 to 4 (where 0=no movement and 4=highly motile) in order to assess whether there were any direct effects against the Mf. To perform the anti-Wolbachia readout, DNA was extracted from each individual well using the QIAmp DNA Mini Kit (Qiagen) ‘DNA Purification from Tissues’ protocol.
The number of Wolbachia present in Mf was assessed by quantification of the Wolbachia surface protein (wsp) gene copy number and normalised to the nematode glutathione S-transferase (gst) gene by qPCR based on methods described by McGarry et al., 2004, Mol Biochem Parasitol. DNA samples were amplified in duplicate in the following 20 μl reactions containing 1× QuantiTect SYBR Green PCR master mix (Qiagen): for wsp, 0.3 μM each of forward ([…]) and reverse ([…]) primer, 3 mM MgCl2 and 2 μl of DNA. For gst, 0.35 μM of forward ([…]) and reverse primer (ATCACGGACGCCTTCACAG), 3.5 mM MgCl2 and 1 μl of DNA. qPCR was performed using the Bio-Rad CFX384 C1000 thermal cycler (Bio-Rad laboratories LTD) with a denaturation step of 95° C. for 15 min then 40 cycles at 95° C. for 15 s, 57° C. (gst) or 60° C. (wsp) for 30 s, and 72° C. for 30 s. Quantification was determined by Bio-Rad CFX manager software by comparing the DNA samples to that of a standard curve generated from serial dilution of plasmid DNA of the appropriate gene. Data in Table 3 are expressed as a reduction in Wolbachia load in comparison to the vehicle control group and normalized by positive control (doxycycline at 5 μM).

[4] = test system: Wolbachia in adult male Onchocerca ochengi; assay: Adult Onchocerca ochengi mouse model, Wolbachia wsp qPCR; type: in vivo; details: CB.17(BALB/c) SCID mice implanted with male O. ochengi, oral
Text: Viable male Onchocerca ochengi were aseptically isolated from naturally parasitized cattle. Between 10-11 male Onchocerca were surgically implanted into the peritoneal cavity of CB.17(BALB/c) SCID mice under anaesthesia. […] 38 Days after O. ochengi surgical implantation, mice were necropsied to recover the live worms. Genomic DNA was extracted from individual adult worms (10/group) and quantification of the O. ochengi-specific Wolbachia surface protein (wsp) performed by quantitative PCR. Data in Table 6 is expressed as a reduction in Wolbachia load in comparison to the vehicle control group.

[5] = test system: Wolbachia in Brugia malayi larvae; assay: Larval Brugia malayi mouse model, Wolbachia wsp qPCR; type: in vivo; details: BALB/c IL4Rα−/− mice, oral, larvae recovered 14 days post-infection
Text: In a larval Brugia malayi mouse model treatment groups (BALB/c IL4Rα−/− mice, 6-8 week old) received compounds by oral delivery for 7 to 14 days commencing on the day of intraperitoneal infection with Brugia malayi third-stage larvae. At 14 days post-infection, larvae were recovered from the peritoneal cavity, counted, and length measured. Genomic DNA was extracted from individual worms (10/group) and quantification of the Wolbachia surface protein (wBm-wsp) gene copy numbers performed by quantitative PCR.
Treatment dosage unit is mg/kg (MK) and duration stated in days (d). Abbreviations: DOX (doxycycline), bid (twice daily), Ms (mesylate). Data in Table 4 are expressed as a reduction in Wolbachia load in comparison to the vehicle control group.

[6] = test system: C6/36 Aedes albopictus cell line infected with Wolbachia pipientis (Wolbachia strain wAlbB); assay: In vitro insect cell line assay (anti-Wolbachia screen, SYTO 11 high content imaging); type: cell-based; details: C6/36 Aedes albopictus cells infected with Wolbachia pipientis wAlbB, 7 days incubation, SYTO 11 imaging, read-out: In vitro anti-Wolbachia activity
How it was run: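 SYTO 11 staining (15 min), high-content imaging and texture analysis were the read-out on day 7. Before that, C6/36 mosquito cells carrying Wolbachia strain wAlbB were incubated at 26 °C with test compound at 5 μM final, alongside DMSO-only control wells.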

[7] = two stereoisomers at a range of doses and durations, dose/duration stands in the drawing (not visible)
[8] = Table 5B, two stereoisomers at a range of doses and durations, dose/duration stands in the drawing (not visible)
[9] = concentration stands in the drawing (not visible)
[10] = dose/duration stands in the drawing (not visible)
[11] = Table 5A, BALB/c CCR3−/− mice, oral, dose/duration stands in the drawing (not visible)

In the case of C[C@@H]1COCCN1c1nc(NCc2cccnc2C(F)(F)F)c2cccnc2n1 [drawing 701], the “% Microfilaria (Mf) production reduction cf median Vehicle” value [1, 7] is reported as 91.4% and the “% Wolbachia reduction cf median Vehicle” value [2, 8] is reported as 82.2%.

For FC(F)(F)c1ncccc1CNc1nc(N2CCC(Cl)CC2)nc2ncccc12 [drawing 687], the “% Reduction level normalised to DOX (5 μm)” value (shortened to “% Reduction level normalised”) [3, 9] was 92.9% and the “% Wolbachia reduction cf. DMSO” value [3, 9] was 83.3%.

In the case of CC1COCCN1c1nc(NCc2cccnc2C(F)(F)F)c2cccnc2n1 (stereo not drawn) [drawing 684], the “% Reduction level normalised” value [3, 9] is reported as 99.8% and the “% Wolbachia reduction cf. DMSO” value [3, 9] is reported as 89.4%.

For C[C@H]1COCCN1c1nc(NCc2cccnc2C(F)(F)F)c2cccnc2n1 [drawing 702], the “% Wolbachia reduction cf median Vehicle” value [4, 10] was 96.2%.

With FC1(F)CCN(c2nc(NCc3cccnc3C(F)(F)F)c3cccnc3n2)CC1 [drawing 690] the “% Wolbachia reduction cf median Vehicle” value [5, 10] was 99.84%.

CC(C)N(C)c1nc(NCc2cccnc2C(F)(F)F)c2cccnc2n1 [drawing 688] was tested, and the “% Wolbachia reduction cf median Vehicle” value [5, 10] was 99.99%.

With CC(C)N(C)c1nc(NCc2cccnc2C(F)(F)F)c2cccnc2n1 [drawing 691] the “% Wolbachia reduction cf median Vehicle” value [2, 11] was 99.4%.

With CC1COCCN1c1nc(NCc2cccnc2C(F)(F)F)c2cccnc2n1 (stereo not drawn) [drawing 689] the “% Wolbachia reduction cf median Vehicle” value [5, 10] was 99.91%.

With C[C@H]1COCCN1c1nc(NCc2cccnc2C(F)(F)F)c2cccnc2n1 [drawing 697] the “% Microfilaria (Mf) production reduction cf median Vehicle” value [1, 7] was 100% and the “% Wolbachia reduction cf median Vehicle” value [2, 8] was 97.8%.

With C[C@@H]1COCCN1c1nc(NCc2cccnc2C(F)(F)F)c2cccnc2n1 [drawing 700] the “% Microfilaria (Mf) production reduction cf median Vehicle” value [1, 7] was 100% and the “% Wolbachia reduction cf median Vehicle” value [2, 8] was 86.8%.

With CC1COCCN1c1nc(NCc2cccnc2C(F)(F)F)c2cccnc2n1 (stereo not drawn) [drawing 692] the “% Wolbachia reduction cf median Vehicle” value [2, 11] was 97.8%.

In the case of CN(C)c1ccc(O)c2c1C[C@H]1C[C@H]3[C@H](N(C)C)C(O)=C(C(N)=O)C(=O)[C@@]3(O)C(O)=C1C2=O [MIN, minocycline, reference compound], the “% Microfilaria (Mf) production reduction cf median Vehicle” value ([1]; BALB/c CCR3−/− mice, oral, 25 MK bid + 28 d treatment + 14 d wash-out) is reported as 100%, the “% Wolbachia reduction cf median Vehicle” value ([2]; Table 5A, BALB/c CCR3−/− mice, oral, 25 MK bid + 28 d, worms recovered 12 weeks post-infection) is reported as 83.6% and the “% Wolbachia reduction cf median Vehicle” value ([2]; Table 5B, BALB/c CCR3−/− mice, oral, 25 MK bid + 28 d treatment + 14 d wash-out) is reported as 98.2%.

With C[C@@H]1COCCN1c1nc(NCc2cccnc2C(F)(F)F)c2cccnc2n1 [drawing 699] the “% Microfilaria (Mf) production reduction cf median Vehicle” value [1, 7] was 100% and the “% Wolbachia reduction cf median Vehicle” value [2, 8] was 99.6%.

With FC1CCN(c2nc(NCc3cccnc3C(F)(F)F)c3cccnc3n2)CC1 [drawing 685] the “% Reduction level normalised” value [3, 9] was 97.4% and the “% Wolbachia reduction cf. DMSO” value [3, 9] was 87.3%.

With C[C@H]1COCCN1c1nc(NCc2cccnc2C(F)(F)F)c2cccnc2n1 [drawing 695] the “% Microfilaria (Mf) production reduction cf median Vehicle” value [1, 7] was 100% and the “% Wolbachia reduction cf median Vehicle” value [2, 8] was 99.7%.

With C[C@H]1COCCN1c1nc(NCc2cccnc2C(F)(F)F)c2cccnc2n1 [drawing 696] the “% Microfilaria (Mf) production reduction cf median Vehicle” value [1, 7] was 100% and the “% Wolbachia reduction cf median Vehicle” value [2, 8] was 99.9%.

With C[C@@H]1COCCN1c1nc(NCc2cccnc2C(F)(F)F)c2cccnc2n1 [drawing 698] the “% Microfilaria (Mf) production reduction cf median Vehicle” value [1, 7] was 100% and the “% Wolbachia reduction cf median Vehicle” value [2, 8] was 99.7%.

In the case of CC1COCCN1c1nc(NCc2cccnc2C(F)(F)F)c2cccnc2n1 (stereo not drawn) [drawing 693], the “% Wolbachia reduction cf median Vehicle” value [2, 11] is reported as 98.8%.

With C[C@H]1c2cccc(O)c2C(=O)C2=C(O)[C@]3(O)C(=O)C(C(N)=O)=C(O)[C@@H](N(C)C)[C@@H]3[C@@H](O)[C@@H]21 [DOX, doxycycline, reference compound] the “% Wolbachia reduction cf median Vehicle” value ([4]; 25 MK bid + 28 d) was 98.7%, the “% Reduction level normalised” value ([3]; 500 nM) was 92.9% and the “% Wolbachia reduction cf. DMSO” value ([3]; 500 nM) was 80.0%. The “% Reduction level normalised” value ([3]; 5 μM) was 100.0%, the “% Wolbachia reduction cf. DMSO” value ([3]; 5 μM) was 89.6% and the “% Wolbachia reduction cf median Vehicle” value ([5]; 25 MK bid + 14 d) was 99.05%.

For FC1(F)CCN(c2nc(NCc3cccnc3C(F)(F)F)c3cccnc3n2)CC1 [drawing 686], the “% Reduction level normalised” value [3, 9] was 98.2% and the “% Wolbachia reduction cf. DMSO” value [3, 9] was 88.0%.

For C[C@H]1COCCN1c1nc(NCc2cccnc2C(F)(F)F)c2cccnc2n1 [drawing 694], the “% Wolbachia reduction cf median Vehicle” value [2, 11] was 98.5%.

FC(F)(F)c1ccccc1CNc1nc(N2CCOC3CC32)nc2ncccc12 (stereo not drawn) [Example 301, 2-(2-oxa-5-azabicyclo[4.1.0]heptan-5-yl)-N-(2-(trifluoromethyl)benzyl)pyrido[2,3-d)pyrimidin-4-amine] showed an EC50 ([6]; 168 h) of 0.01 to 1 nM.

For CC(Nc1ncnc2cc(-c3ccccc3)sc12)c1ccccc1C(F)(F)F (stereo not drawn) [Example 98, 6-phenyl-N-(1-(2-(trifluoromethyl)phenyl)ethyl)thieno[3,2-d]pyrimidin-4-amine], the EC50 ([6]; 168 h) was 1000 to 100000 nM.

In the case of “2-((3R)-3,5-dimethylmorpholino)-N-(2-(trifluoromethyl)benzyl)pyrido[2,3-d]pyrimidin-4-amine [Example 302]”, the EC50 [6] is reported as less than 0.01 nM.

Source: patent publication US11518760B2 (Liverpool School of Tropical Medicine, priority 2017, dated 2022)
